This note sets out measurements from patent US20110230478A1 (Bayer ScienceCrop AG, priority 2008, published 2011).

One data set can be described thus: logP by HPLC on reversed-phase columns (C 18), EEC Directive 79/831 Annex V.A8. The format is physicochemical. Particulars: method marker [a].
As to `CC(=O)c1cccc(Nc2ncc(Cl)c(NC3CCCCC3)n2)c1` [Example 262], the logP is 2.53[a].

The same data set, now with this note: method marker [a]; footnote not given.
For the molecule `CCC(C)N(C)c1nc(Nc2cccc(S(=O)(=O)N(C)C)c2)ncc1Cl` (centres unmarked) [Example 52], the logP is 3.33[a].

For the molecule `CC(=O)c1cccc(Nc2ncc(Cl)c(N(C)C(C)C)n2)c1.Cl` [Example 45], the logP is 2.5[a].

`CCCCNc1nc(Nc2ccccc2)ncc1Cl` [Example 32]: the logP was 2.12[a].

Consider `COc1cc(Nc2ncc(Cl)c(NCCO)n2)cc(OC)c1.Cl` [Example 54], for which the logP was 1.26[a].

Regarding `CSCC(C)Nc1nc(Nc2ccccc2)ncc1Cl` (centres unmarked) [Example 37], the logP is 2.04[a].

In the case of `COCCNc1nc(Nc2ccccc2)ncc1Cl` [Example 3], the logP was 1.41[a].

Still in this data set, the particulars now being: method marker [b] (compound 257: pH2.7).
For the molecule `CCC(CC)Nc1nc(Nc2ccccc2)ncc1Cl` [Example 275], the logP is 2.34[b].

Take `CC(C)CNc1nc(Nc2ccccc2)ncc1Cl` [Example 279]: the logP is 2.02[b].

For the molecule `Clc1cnc(Nc2ccccc2)nc1NC1CCCC1` [Example 254], the logP is 2.28[b].

The same data set, now with this note: method marker [b]; footnote not given; compound 68 value matches logP (pH 2.3).
As to `COCC(C)Nc1nc(Nc2ccc(Cl)c(S(C)(=O)=O)c2)ncc1Cl` (centres unmarked) [Example 100], the logP is 2.09[b].

On to `COCC(C)Nc1nc(Nc2ccc(OC)cc2)ncc1Cl` (centres unmarked) [Example 86], for which the logP was 1.56[b].

As to `CCC(=O)c1ccc(Nc2ncc(Br)c(NC(C)COC)n2)cc1` (centres unmarked) [Example 78], the logP was 2.57[b].

As for `COCC(C)Nc1nc(Nc2ccc(F)cc2F)ncc1Br` (centres unmarked) [Example 73], the logP is 2.16[b].

As for `COCC(C)Nc1nc(Nc2ccc(SC)c(Cl)c2)ncc1Cl` (centres unmarked) [Example 89], the logP is 2.77[b].

On to `COCC(C)Nc1nc(Nc2ccc(CC(=O)OC)cc2)ncc1Cl` (centres unmarked) [Example 91], for which the logP was 1.71[b].

Regarding `COCC(C)Nc1nc(Nc2cccc(CC(=O)OC)c2)ncc1Cl` (centres unmarked) [Example 93], the logP was 1.75[b].

On to `COCC(C)Nc1nc(Nc2cccc(S(=O)(=O)N3CCOCC3)c2)ncc1Br` (centres unmarked) [Example 120], for which the logP was 2.16[b].

As for `COCC(C)Nc1nc(Nc2ccc3c(c2)OCO3)ncc1Cl` (centres unmarked) [Example 97], the logP is 1.56[b].

In the case of `CCOc1cccc(Nc2ncc(Cl)c(NC(C)COC)n2)c1` (centres unmarked) [Example 96], the logP was 2.04[b].

Still in this data set, the particulars now being: pH 2.3, logP [a].
In the case of `COCC(C)Nc1nc(Cl)ncc1Cl` (centres unmarked) [Example V-1, 2,5-Dichloro-N-(3-methoxypropan-2-yl)pyrimidine-4-amine], the chromatographic logP was found to be 2.1.

Staying with this data set, now noted: reversed-phase HPLC column (C 18), pH 2.3, pH 2.3, 0.1% aqueous phosphoric acid and acetonitrile; read-out: logP [a].
`O=[N+]([O-])c1cccc(CS(=O)(=O)NCc2ccccc2)c1` [IV-4, N-(benzyl)-1-(3-nitrophenyl)methanesulphonamide]: the chromatographic logP came out at 2.43.

`CN1CCN(Cc2cccc([N+](=O)[O-])c2)C1=O` [1-methyl-3-(3-nitrobenzyl)imidazolidin-2-one]: the chromatographic logP worked out at 2.03.

Staying with this data set, now noted: values marked [b]; footnote not given.
Turning to `COCC(C)Nc1nc(Nc2cccc(NC(=O)Oc3ccccc3)c2)ncc1Cl` (centres unmarked) [Example 165], the logP was 2.23[b].

Turning to `CC(C)Nc1nc(Nc2ccc(NC(=O)C(C)(C)C)cc2)ncc1Cl` [Example 188], the logP is 1.81[b].

Consider `COCC(C)Nc1nc(Nc2ccc(N(C(=O)C(F)(F)F)C3CC3)cc2)ncc1Cl` (centres unmarked) [Example 164], for which the logP was 2.55[b].

On to `CCOC(=O)Nc1cccc(Nc2ncc(Br)c(NC(C)COC)n2)c1` (racemic) [Example 129], for which the logP was 1.87[b].

With `COCC(C)Nc1nc(Nc2ccc(NC(=O)C(C)(C)C)cc2)ncc1Cl` (racemic) [Example 146], the logP is 1.78[b].

`COCC(C)Nc1nc(Nc2ccc(NC(C)=O)c(OC)c2)ncc1Br` (racemic) [Example 125]: the logP is 1.46[b].

As for `CC(=O)Nc1ccc(Nc2ncc(Cl)c(NC(C)C)n2)cc1Cl` [Example 190], the logP is 1.61[b].

Regarding `COCC(C)Nc1nc(Nc2cccc(C=O)c2)ncc1Cl` (centres unmarked) [Example 244], the logP was 1.8[b].

Still in this data set, the particulars now being: values marked [c]; footnote not given.
Consider `COCC(C)Nc1nc(Nc2cccc(C=O)c2)ncc1Cl` (centres unmarked) [Example 244], for which the logP is 2.75[c];.
